Data taken from article PMC7321065, “Discovery of New Schiff Bases Tethered Pyrazole Moiety: Design, Synthesis, Biological Evaluation, and Molecular Docking Study as Dual Targeting DHFR/DNA Gyrase Inhibitors with Immunomodulatory Activity” (Molecules, 2020).
In brackets after ≈: the same amount, converted by molar mass. Where two headings read alike, the source gives them in different places.

Key:
[1] = biological target: B. subtilis DNA Gyrase (Bacillus subtilis, UniProt P05652+P05653); assay: DNA gyrase enzyme assay; type: biochemical; settings: Mean ± SEM
[2] = test system: S. aureus ATCC 33591; assay: Inhibition zone against MDRB, agar plate diffusion; type: cell-based
[3] = test system: S. aureus ATCC 43300 (MRSA); assay: Inhibition zone against MDRB, agar plate diffusion; type: cell-based
[4] = test system: Salmonella typhi; assay: Inhibition zone, agar plate diffusion; type: cell-based; settings: Salmonella enterica, St, mm ± standard deviation, sample at 0.5 mg/mL, read-out: Inhibition zone (IZ)
Summary of the method: (§1)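 Compounds in DMSO, with DMSO as negative control, were tested at 0.5 mg/mL in agar wells cut 10 mm wide.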

[5] = test system: Staphylococcus aureus; assay: Inhibition zone, agar plate diffusion; type: cell-based; settings: Sa, mm ± standard deviation, sample at 0.5 mg/mL, read-out: Inhibition zone (IZ)
Summary of the method: as §1

[6] = test system: Fusarium oxysporum; assay: Inhibition zone, agar plate diffusion; type: cell-based; settings: Fo, mm ± standard deviation, sample at 0.5 mg/mL, read-out: Inhibition zone (IZ)
Summary of the method: as §1

[7] = test system: Candida albicans; assay: Inhibition zone, agar plate diffusion; type: cell-based; settings: Ca, mm ± standard deviation, sample at 0.5 mg/mL, read-out: Inhibition zone (IZ)
Summary of the method: as §1

[8] = test system: Fusarium oxysporum; assay: MIC/MFC, paper disk diffusion; type: cell-based; settings: F. oxysporum; for MFC / MIC: Fusarium oxysporum; for MFC: read-out: MFC; for MIC: read-out: MIC
Summary of the method: (§2)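 MIC and MBC were obtained by paper disk diffusion, bacteria grown on nutrient agar and fungi/yeast on Sabouraud agar. MIC is the lowest concentration inhibiting growth.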

[9] = test system: Candida albicans; assay: MIC/MFC, paper disk diffusion; type: cell-based; settings: for MFC / MIC: Candida albicans; for MFC: read-out: MFC
Summary of the method: as §2

[10] = biological target: DHFR E. coli (Escherichia coli, UniProt P0ABQ4); assay: Dihydrofolate reductase enzyme assay; type: biochemical; settings: for Fold potential relative to Trimethoprim (IC50): DHFR
[11] = test system: Vero cells (ATCC CCL-81); assay: Cytotoxicity on normal cells, MTT assay; type: cell-based, African green monkey; settings: MTT, healthy non-cancer cells, read-out: IC50 Vero
Procedure: 3-[4, 5-Dimethyl-2-thiazolyl)-2, 5-diphenyl-2 H-tetrazolium bromide (MTT) protocol is based on the cleavage of the tetrazolium salt by mitochondrial dehydrogenases in viable cells. Cells were dispensed in a 96 well sterile microplate (5 x 10^4 cells/well), and incubated at 37 °C with series of different concentrations, in DMSO, of each tested compound or Doxorubicin ® (positive control) for 48 h in a serum free medium prior to the MTT assay. After incubation, media were carefully removed, 40 µL of MTT (2.5 mg/mL) were added to each well and then incubated for an additional 4 h. The purple formazan dye crystals were solubilized by the addition of 200 µL of DMSO. The absorbance was measured at 590 nm using a SpectraMax® Paradigm® Multi-Mode microplate reader. The relative cell viability was expressed as the mean percentage of viable cells compared to the untreated control cells.
All experiments were conducted in triplicate and repeated in three different days. All the values were represented as mean ± SD. IC 50s were determined by probit analysis using SPSS software program (SPSS

[12] = test system: P. aeruginosa ATCC BAA-2111; assay: Inhibition zone against MDRB, agar plate diffusion; type: cell-based
[13] = test system: E. coli ATCC BAA-196; assay: Inhibition zone against MDRB, agar plate diffusion; type: cell-based
[14] = test system: hepatocellular carcinoma cell line (HepG2); assay: Antiproliferative activity, MTT assay; type: cell-based, human; settings: Homo sapiens, HepG2; MTT, 48 h; read-out: IC50 HepG-2
Summary of the method: (§3)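 MTT added for 4 h, formazan dissolved in DMSO, absorbance at 590 nm. Viability relative to untreated cells; IC50 by probit analysis.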

[15] = test system: mammary gland breast cancer cell line (MCF-7); assay: Antiproliferative activity, MTT assay; type: cell-based, human; settings: for IC50: Homo sapiens, MCF7, MTT, 48 h, read-out: IC50 MCF-7; for Fold relative to doxorubicin (IC50): MCF-7
Summary of the method: as §3

[16] = test system: S. aureus ATCC 43300 (MRSA); assay: MIC/MBC against MDRB, paper disk diffusion; type: cell-based; settings: Staphylococcus aureus, S. aureus ATCC 43300; for MBC: read-out: MBC; for MIC: read-out: MIC
From the text: (§4) The inhibition zone (IZ, mm±standard deviation) of pyrazole Schiff bases ( 6b, 7b, 7c, 8a, 8d and 9b) was
(§5) measurement according to the agar plate diffusion method against a panel of multidrug-resistant bacteria
(MDRB). […]

[17] = test system: E. coli ATCC BAA-196; assay: MIC/MBC against MDRB, paper disk diffusion; type: cell-based; settings: Escherichia coli, ATCCBAA196, E. coli ATCC BAA-196; for MBC: read-out: MBC; for MIC: read-out: MIC
From the text: as §4, §5
(MDRB). […]

[18] = test system: S. aureus ATCC 33591; assay: MIC/MBC against MDRB, paper disk diffusion; type: cell-based; settings: Staphylococcus aureus, ATCC33591, S. aureus ATCC 33591; for MBC: read-out: MBC; for MIC: read-out: MIC
From the text: as §4, §5
(MDRB). […]

[19] = test system: P. aeruginosa ATCC BAA-2111; assay: MIC/MBC against MDRB, paper disk diffusion; type: cell-based; settings: Pseudomonas aeruginosa, ATCCBAA2111, P. aeruginosa ATCC BAA-2111; for MBC: read-out: MBC; for MIC: read-out: MIC
From the text: as §4, §5
(MDRB). […]

## COc1ccc(Nc2n[nH]c(N=Cc3cc(OC)c(OC)c(OC)c3)c2C(=O)Nc2ccccc2)cc1 [9b, 3-(p-Methoxyphenylamino)-N-phenyl-5-(3,4,5-trimethoxybenzylideneamino)-1H-pyrazole-4-carboxamide]
[1]
  IC50: 14.2 ± 0.42 µM
[2]
  Mean Diameter of Inhibition Zone against MDRB: 25 ± 0.12 mm
[3]
  Mean Diameter of Inhibition Zone against MDRB: 24 ± 0.65 mm
[4]
  zone of inhibition at 500 µg/mL: 23 ± 0.4 mm
[5]
  zone of inhibition at 500 µg/mL: 21 ± 0.3 mm
[6]
  zone of inhibition at 500 µg/mL: 17 ± 0.5 mm
[7]
  zone of inhibition at 500 µg/mL: 19 ± 0.25 mm
[8]
  Fold activity in comparison with Amphotericin B (MIC): 2 fold
  MFC: 26.6 µg/mL (≈ 52.9 µM)
  MIC: 15.6 µg/mL (≈ 31.1 µM)
[9]; C. albicans
  Fold activity in comparison with Amphotericin B (MIC): 2 fold
  MFC: 12.5 µg/mL (≈ 24.9 µM)
[9]; C. albicans, read-out: MIC
  MIC: 7.81 µg/mL (≈ 15.6 µM)
[10]
  IC50: 6.48 ± 0.33 µM
  Fold potential relative to Trimethoprim (IC50): 0.80 fold
[11]; Chlorocebus sabaeus, Vero
  IC50: > 120 µM
[11]
  IC50: 195.9 ± 0.57 µM
[12]
  Mean Diameter of Inhibition Zone against MDRB: 24 ± 0.88 mm
[13]
  Mean Diameter of Inhibition Zone against MDRB: 22 ± 0.2 mm
[14]
  IC50: 1.92 ± 0.49 µM
[15]
  IC50: 2.21 ± 0.36 µM
  Fold relative to doxorubicin (IC50): 0.877 fold
[16]
  MBC: 4.5 µg/mL (≈ 8.97 µM)
  MIC: 2.5 µg/mL (≈ 4.98 µM)
[17]
  MBC: 11.9 µg/mL (≈ 23.7 µM)
  MIC: 6.25 µg/mL (≈ 12.5 µM)
[18]
  MBC: 3.31 µg/mL (≈ 6.6 µM)
  MIC: 1.95 µg/mL (≈ 3.89 µM)
[19]
  MBC: 9.88 µg/mL (≈ 19.7 µM)
  MIC: 5.2 µg/mL (≈ 10.4 µM)

## COc1ccc(Nc2n[nH]c(N=Cc3ccc(N4CCCCC4)cc3)c2C(N)=O)cc1 [8a, 3-(p-Methoxyphenylamino)-5-(4-(piperidin-1-yl)benzylideneamino)-1H-pyrazole-4-carboxamide]
[1]
  IC50: 15.3 ± 0.5 µM
[2]
  Mean Diameter of Inhibition Zone against MDRB: 24 ± 0.12 mm
[3]
  Mean Diameter of Inhibition Zone against MDRB: 26 ± 0.15 mm
[4]
  zone of inhibition at 500 µg/mL: 23 ± 0.11 mm
[5]
  zone of inhibition at 500 µg/mL: 26 ± 0.14 mm
[6]
  zone of inhibition at 500 µg/mL: 20 ± 0.82 mm
[7]
  zone of inhibition at 500 µg/mL: 24 ± 0.3 mm
[8]
  Fold activity in comparison with Amphotericin B (MIC): 2 fold
  MFC: 27.8 µg/mL (≈ 66.4 µM)
  MIC: 15.6 µg/mL (≈ 37.3 µM)
[9]; C. albicans
  Fold activity in comparison with Amphotericin B (MIC): 2 fold
  MFC: 15.6 µg/mL (≈ 37.3 µM)
[9]
  MIC: 7.81 µg/mL (≈ 18.7 µM)
[10]
  IC50: 3.98 ± 0.61 µM
  Fold potential relative to Trimethoprim (IC50): 1.3 fold
[11]; Chlorocebus sabaeus, Vero
  IC50: > 120 µM
[11]
  IC50: 120.5 ± 0.34 µM
[12]
  Mean Diameter of Inhibition Zone against MDRB: 27 ± 0.54 mm
[13]
  Mean Diameter of Inhibition Zone against MDRB: 25 ± 0.46 mm
[14]
  IC50: 2.25 ± 0.85 µM
[15]
  IC50: 1.98 ± 1.55 µM
  Fold relative to doxorubicin (IC50): 0.979 fold
[16]
  MBC: 3.9 µg/mL (≈ 9.32 µM)
  MIC: 1.95 µg/mL (≈ 4.66 µM)
[17]
  MBC: 3.9 µg/mL (≈ 9.32 µM)
  MIC: 1.95 µg/mL (≈ 4.66 µM)
[18]
  MBC: 7.8 µg/mL (≈ 18.6 µM)
  MIC: 3.9 µg/mL (≈ 9.32 µM)
[19]
  MBC: 7.8 µg/mL (≈ 18.6 µM)
  MIC: 3.9 µg/mL (≈ 9.32 µM)
